Data on ten molecules can be found in publication PMC9919311, “Catechol-O-methyltransferase Inhibitors from Calendula officinalis Leaf” (Molecules, 2023).

Like-named read-outs stand apart in the source and are kept apart here. Where only a bound is given, the exact number is not on record here.

The target in one data set is T1, Recombinant human COMT (Homo sapiens, UniProt P21964).
T1 construct: made in house
T1 sequence (P21964 1-271): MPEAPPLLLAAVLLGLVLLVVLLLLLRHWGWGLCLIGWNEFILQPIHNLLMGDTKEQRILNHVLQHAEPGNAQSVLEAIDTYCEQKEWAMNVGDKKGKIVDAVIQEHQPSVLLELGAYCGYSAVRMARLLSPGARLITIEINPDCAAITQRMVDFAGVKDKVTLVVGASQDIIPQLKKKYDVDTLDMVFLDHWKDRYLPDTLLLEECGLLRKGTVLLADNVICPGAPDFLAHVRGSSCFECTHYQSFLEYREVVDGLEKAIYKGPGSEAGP
Kind of data set: COMT inhibitory assay (3-BTD fluorescent substrate). Type of data set: biochemical.

For data set [1] the following is noted: cited from earlier work.
The mark [2] stands for this setting: 1 µM COMT, 200 µM SAM, 20 µM 3-BTD, 0–100 µM inhibitor, pH 7.5, 37 °C, read-out: COMT inhibitory activities (IC50).

As for `COc1cc(-c2oc3cc(O)cc(O)c3c(=O)c2O[C@@H]2O[C@H](CO)[C@@H](O)[C@H](O)[C@H]2O)ccc1O` [Compound 2, isorhamnetin 3-O-β-glucoside], the IC50 at Recombinant human COMT (setting [2]) was found to be 55 µM. On to `CC1OC(OC2C(Oc3c(-c4ccc(O)c(O)c4)oc4cc(O)cc(O)c4c3=O)OC(CO)C(O)C2O)C(O)C(O)C1O` (stereo not drawn) [Compound 3, quercetin 3-O-β-neohesperidoside], for which the IC50 on Recombinant human COMT is 71 µM. `CC1OC(OC2C(Oc3c(-c4ccc(O)c(O)c4)oc4cc(O)cc(O)c4c3=O)OC(COC(=O)CC(=O)O)C(O)C2O)C(O)C(O)C1O` (stereo not drawn) [Compound 4, quercetin 3-O-(2″-O-α-rhamnosyl-6″-O-malonyl)-β-glucoside]: the IC50 at Recombinant human COMT (setting [2]) came to 65 µM. On to `O=C(O)CC(=O)OC[C@H]1O[C@@H](Oc2c(-c3ccc(O)c(O)c3)oc3cc(O)cc(O)c3c2=O)[C@H](O)[C@@H](O)[C@@H]1O` [Compound 5, quercetin 3-O-(6″-O-malonyl)-β-glucoside], for which, at Recombinant human COMT (setting [2]), the IC50 is 59 µM.

On to `COC(=O)CC(=O)OC[C@H]1O[C@@H](Oc2c(-c3ccc(O)c(O)c3)oc3cc(O)cc(O)c3c2=O)[C@H](O)[C@@H](O)[C@@H]1O` [Compound 6], for which the IC50 on Recombinant human COMT (setting [2]) is 42 µM.

In the case of `COc1cc(-c2oc3cc(O)cc(O)c3c(=O)c2O[C@@H]2O[C@H](COC(=O)CC(=O)O)[C@@H](O)[C@H](O)[C@H]2O)ccc1O` [Compound 7, isorhamnetin 3-O-(6″-O-malonyl)-β-glucoside], on Recombinant human COMT (setting [2]), the IC50 was above 100 µM. As for `O=C(/C=C/c1ccc(O)c(O)c1)O[C@@H]1C[C@](O)(C(=O)O)C[C@@H](O)[C@H]1O` [Compound 8, chlorogenic acid], the IC50 on Recombinant human COMT (setting [2]) came to 100 µM. Regarding `O=C(C=Cc1ccc(O)c(O)c1)OC1CC(O)(C(=O)O)CC(O)C1OC(=O)C=Cc1ccc(O)c(O)c1` (centres unmarked) [Compound 9, 3,4-dicaffeoylquinic acid], the IC50 at Recombinant human COMT (setting [2]) came to 21 µM. The “COMT inhibitory activity (in words)” value on Recombinant human COMT (isolated compounds 1–10 compared) is on record as “highest inhibitory activity”.

With `COc1cc(C(=O)O)cc(OC)c1O` [Compound 10, syringic acid], the IC50 on Recombinant human COMT (setting [2]) was above 100 µM. `Cc1ccc(C(=O)c2cc(O)c(O)c([N+](=O)[O-])c2)cc1` [Tolcapone]: the hepatotoxicity result in data set [1] is “severe hepatotoxicity”.
